The values that follow come from patent US8524665B2, “Use of secretin in treatments of disorders associated with the amygdala” (The McLean Hospital Corporation, priority 2003, dated 2013).

Each structure is given as a SMILES string.

For data set [1], the system named is amygdala. The conditions noted are these: depressed patients, versus baseline evaluation; cited from earlier work.
Data set [2] relates to amygdala. The conditions noted are these: healthy subjects; cited from earlier work.
Data set [3] can be described thus: clinical. The conditions noted are these: human, in vivo, iv, 0.4 ug/kg. The method, then: Upon entering the scanner, an […] was started in an antecubital vein and subjects were randomly assigned to receive either placebo (saline) or RG1068 (synthetic human secretin). Drug was administered at 0.4 μg/kg via the […] over 1 min. A 3-way stop-clock device with a heparinized line was used to collect blood samples immediately preceding the infusion of RG1068 or placebo and at variable points post infusion for drug pharmacokinetic analysis. Vital signs were monitored for at least 20 minutes after infusion. Prior to the infusion, subjects completed three affective challenge paradigms which had been explained to them before entering the scanner. Subjects completed the same paradigms one hour following infusion with either placebo or RG1068 for pre/post comparison (FIG. 1).
Blood samples were taken over the first 60 minutes post dosing, and samples from subjects receiving RG1068 were used to quantify secretin blood levels. […] Both the Cmax and the elimination rate are consistent with values observed after similar secretin infusions in adults (Christ et al., 1988). Whole brain T2 measures were obtained to verify that no global metabolic effect occurred with the administration of secretin.

`COc1ccc(C(CN(C)C)C2(O)CCCCC2)cc1` (stereo not shown) [venlafaxine]: in data set [1], the “amygdalar activation to positive stimuli after treatment” value was “significant increase in activation”.
For `C[C@H](N)Cc1ccccc1` [dextroamphetamine], the “amygdalar responsivity to facial affect” value in data set [2] is given as “increased amygdalar responsivity”.
For orientation: Cmax means the peak of the concentration-time curve. As usually defined, the half-life is the time needed for the level to fall by half in the phase considered. Lower therefore signals fast loss. In data set [3], `CC(C)C[C@H](NC(=O)CNC(=O)[C@H](CCC(N)=O)NC(=O)[C@H](CC(C)C)NC(=O)[C@H](CC(C)C)NC(=O)[C@H](CCCNC(=N)N)NC(=O)[C@H](CCC(N)=O)NC(=O)[C@H](CC(C)C)NC(=O)[C@H](CCCNC(=N)N)NC(=O)[C@H](C)NC(=O)CNC(=O)[C@H](CCC(=O)O)NC(=O)[C@H](CCCNC(=N)N)NC(=O)[C@H](CC(C)C)NC(=O)[C@H](CCCNC(=N)N)NC(=O)[C@H](CO)NC(=O)[C@H](CC(C)C)NC(=O)[C@H](CCC(=O)O)NC(=O)[C@H](CO)NC(=O)[C@@H](NC(=O)[C@H](Cc1ccccc1)NC(=O)[C@@H](NC(=O)CNC(=O)[C@H](CC(=O)O)NC(=O)[C@H](CO)NC(=O)[C@@H](N)Cc1c[nH]cn1)[C@@H](C)O)[C@@H](C)O)C(=O)N[C@H](C(N)=O)C(C)C` [Secretin, secretin] returned a Cmax of 5.1 ng/mL and a half-life of 3.7 min.
